Experimental findings from patent publication US6528528B2 (Warner-Lambert Company, priority 1997, dated 2003) are described below.

The first data set addresses T1, rabbit reticulocyte 15-LO (Oryctolagus cuniculus, UniProt P12530).
T1 construct: Fifteen-lipoxygenase was obtained from phenylhydrazine-treated rabbits and purified per the method of Rapoport; from tissue; host or cells: reticulocytes of phenylhydrazine-treated rabbits
T1 sequence (P12530 1-663): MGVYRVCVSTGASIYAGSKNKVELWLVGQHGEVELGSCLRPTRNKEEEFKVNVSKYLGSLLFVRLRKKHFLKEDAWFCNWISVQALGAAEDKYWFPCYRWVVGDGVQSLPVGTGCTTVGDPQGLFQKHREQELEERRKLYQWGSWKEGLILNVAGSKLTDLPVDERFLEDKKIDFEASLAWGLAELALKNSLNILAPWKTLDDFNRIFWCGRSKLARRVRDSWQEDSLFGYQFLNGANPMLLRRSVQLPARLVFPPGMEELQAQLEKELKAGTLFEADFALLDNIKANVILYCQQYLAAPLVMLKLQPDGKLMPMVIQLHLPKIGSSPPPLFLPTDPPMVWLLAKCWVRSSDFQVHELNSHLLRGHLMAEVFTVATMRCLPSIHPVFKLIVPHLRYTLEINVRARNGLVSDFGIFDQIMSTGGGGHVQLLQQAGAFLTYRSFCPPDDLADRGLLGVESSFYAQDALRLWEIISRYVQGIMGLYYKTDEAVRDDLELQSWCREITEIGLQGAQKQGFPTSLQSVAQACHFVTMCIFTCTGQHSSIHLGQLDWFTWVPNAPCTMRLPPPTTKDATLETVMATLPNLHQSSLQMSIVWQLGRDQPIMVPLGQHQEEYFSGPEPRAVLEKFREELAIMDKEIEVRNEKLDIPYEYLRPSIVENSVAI
Put plainly: Rabbit Reticulocyte 15-LO Assay (h15LO). It counts as biochemical. The note with it: Table 2; 2U rabbit reticulocyte 15-LO, 174 μM linoleic acid, 15 minutes at 4° C. The method, boiled down:
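Purified rabbit reticulocyte 15-LO (2U) incubated with inhibitor and 174 μM linoleic acid in PBS with 0.2% Na cholate for 15 minutes at 4° C. 13-HPODE quantified by peak area against 13-HODE standard curve; % inhibition relative to uninhibited reaction.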
The IC50 is the concentration needed to halve the response being measured. Compound `COc1ccc(NC(=O)c2ccc(Cl)c(Cl)c2)cc1NCc1cccs1` [Example 264, 3,4-Dichloro-N-{4-methoxy-3-[(thiophen-2-ylmethyl)-amino]-phenyl}-benzamide] registered an IC50 of 37 nM. In turn, `COc1ccc(C(=O)Nc2ccccc2)cc1NCc1ccc2c(c1)OCO2` [Example 266, 3-[(Benzo[1,3]dioxol-5-ylmethyl)-amino]-4-methoxy-N-phenyl-benzamide] returned an IC50 of 197 nM. `COc1ccc(C(=O)Nc2ccccc2)cc1NCc1cc(F)cc(F)c1` [Example 267, 4-Methoxy-3-(3,5-difluoro-benzylamino)-N-phenyl-benzamide] displayed an IC50 of 198 nM. In turn, `COc1ccc(C(=O)Nc2ccccc2)cc1NCc1ccc(N(C)C)cc1` [Example 268, 3-(4-Dimethylamino-benzylamino)-4-methoxy-N-phenyl-benzamide] registered an IC50 of 213 nM. Consider `COc1ccc(C(=O)Nc2ccccc2)cc1NCc1cccc(C(F)(F)F)c1` [Example 269, 4-Methoxy-3-(3-trifluoromethyl-benzylamino)-N-phenyl-benzamide], for which half-maximal inhibition (IC50) was put at 221 nM. Still for that read-out and setting: the same measure for `COc1ccc(C(=O)Nc2ccccc2)cc1NCc1ccccc1F` [Example 270, 4-Methoxy-3-(2-fluoro-benzylamino)-N-phenyl-benzamide]: 241 nM; for `COc1ccc(C(=O)Nc2ccccc2)cc1NCc1ccc2c(c1)OCCO2` [Example 271]: 302 nM; for `COc1ccc(C(=O)Nc2ccccc2)cc1NCc1ccc(O)cc1` [Example 272, 3-(4-Hydroxy-benzylamino)-4-methoxy-N-phenyl-benzamide]: 304 nM. In the case of `COc1ccc(C(=O)Nc2ccccc2)cc1NCc1cccc(C)c1` [Example 273, 4-Methoxy-3-(3-methyl-benzylamino)-N-phenyl-benzamide], the IC50 turned out to be 385 nM.

Regarding `COc1ccc(C(=O)Nc2ccccc2)cc1NCc1ccc(F)c(F)c1` [Example 274, 3-(3,4-Difluoro-benzylamino)-4-methoxy-N-phenyl-benzamide], the IC50 worked out at 391 nM.

Staying with this data set, now noted: Table 2; concentration not given.
`CCOC(=O)c1cccc(NC(=O)c2ccc(OC)c(NCc3cccs3)c2)c1` [Example 263, 3-{4-Methoxy-3-[(thiophen-2-ylmethyl)-amino]-benzoylamino}-benzoic Acid Ethyl Ester]: the “h15LO, value given as bare %” value stood at 53.51%. Still for that read-out and setting: as for `COc1ccc(NC(=O)c2ccc(F)c(F)c2)cc1NCc1cccs1` [Example 265, 3,4-Difluoro-N-{4-methoxy-3-[(thiophen-2-ylmethyl)-amino]-phenyl}-benzamide], the figure is 98.89%.

Test system in the next data set: not given
Assay: not given
Settings: not given
One may read the melting point as the temperature of the solid-liquid transition. `Cc1ccc(C(=O)Nc2ccccc2)cc1N` [Example 1, 3-Amino-4-methyl-N-phenyl-benzamide]: the melting point lay within 149 to 151 °C. In the case of `Nc1cc(C(=O)Nc2ccccc2)ccc1Cl` [Example 13, 3-Amino-4-chloro-N-phenyl-benzamide], the melting point lay within 194 to 197 °C.

In turn, `Nc1cc(NC(=O)c2ccc(Cl)c(Cl)c2)ccc1F` [Example 22, 3,4-Dichloro-N-(3-amino-4-fluorophenyl)-benzamide] came in with a melting point of 151 to 153 °C. Compound `COc1ccc(NC(=O)Nc2ccccc2)cc1N` [Example 24, 1-(3-Amino-4-methoxyphenyl)-3-phenyl-urea] returned a melting point of 174 to 175 °C.

`COc1ccc(NC(=O)c2ccccc2)cc1Nc1ccccc1` [Example 49, N-[3-(Phenylamino)-4-methoxy-phenyl]-benzamide] gave a melting point of 209 to 210 °C.

`COc1ccc(C(=O)Nc2cccnc2)cc1NC(=S)Nc1ccc(Cl)c(Cl)c1` [Example 100, 3-[3-(3,4-Dichlorophenyl)-thioureido]-4-methoxy-N-pyridin-3-yl-benzamide] gave a melting point of 179 to 180 °C. On to `COc1ccc(C(=O)Nc2cc(C)cc(C)c2)cc1NC(=S)Nc1cccc(C)c1` [Example 103, N-(3,5-Dimethylphenyl)-4-methoxy-3-(3-m-tolyl-thioureido)-benzamide], for which the melting point lay within 188 to 189 °C.
